Read-outs that look alike come from different tables or passages of the source.
Columns and labels:
CRBN-DDB1 = CRBN-DDB1 (Homo sapiens (Human), UniProt Q96SW2); test: Compound binding to CRBN by HTRF assay
Procedure: Compound activity was monitored in a Homogenous Time-Resolved Fluorescence (HTRF) assay using 1-[5-({2-[2-(2-{[2-(2,6-dioxopiperidin-3-yl)-1,3-dioxo-2,3-dihydro-1H-isoindol-4-yl]oxy}acetamido)ethoxy]ethyl}carbamoyl)pentyl]-3,3-dimethyl-2-[(1E,3E)-5-[(2E)-1,3,3-trimethyl-5-sulfo-2,3-dihydro-1H-indol-2-ylidene]penta-1,3-dien-1-yl]-3H-indol-1-ium-5-sulfonate as a fluorescent probe. Biochemical assays were conducted in Greiner white 384 well HiBase plates (Cat. No 784075-25) in 20 μL total volume. A one pot detection solution of CRBN-DDB1 (2.5 nM), Anti-His Terbium Cryptate Gold (1×, PerkinElmer Cat. #: 61HI2TLB), and Cy5-Thalidomide (100 nM, Tenova Cat.: T52461) was prepared in 20 mM HEPES, 20 mM NaCl, 0.2 mM TCEP, 0.2 mM EDTA, and 0.005% Tween20 was dispensed to each assay plate. Compounds were stored in dry, ambient temperatures at 10 mM. An 11-point, 1:3 dilution series was prepared from 10 mM stock concentrations in Echo-compatible LDV plates. 10 nL of each compound dilution series was dispensed into assays wells using an Echo 650 (Labcyte Inc. USA). 20 nL of 10 mM Lenalidomide was transferred into the active-control wells for the assay and 20 nL of DMSO was transferred into the neutral-control wells. The assay was then allowed to incubate for 30 min at ambient temperature after transferring compound. Plate measurements were taken on a Pherastar FSX (BMG Labtech, Germany) using the HTRF Red filter (Ex. 337 nm, em1: 620 nm, em2: 665 nm) (Flashes: 50, Integration time: 60-400 us, Z-height: 10 mm, Ratio-multiplier: 10,000). The HTRF signal was then subsequently normalized to the neutral and active controls. Analysis and EC50 values were derived using KNIME analytics (KNIME Zurich) transformation and fitting within Collaborative Drug Discovery (Collaborative Drug Discovery USA). Ki was derived from the geometric mean of the EC50 values using the Cheng-Prustoff transformation.

NEK7 = NEK7 (Homo sapiens (Human), UniProt Q8TDX7+Q96SW2); test: NEK7 NanoBiT degradation assay in Cal51 NEK7 NanoBiT cell line; type: cell-based; details: Cal51 NEK7 NanoBiT cells, 24 hours; for Dmax: CAL-51
Procedure: Cal51 NEK7 NanoBiT cell line was generated via CRISPR Knock-In of the HiBiT tag in NEK7 gene and stable infection with a lentivirus carrying LgBiT protein. The cell line was generated in house. For the experiment, cells were plated in 384-well white flat bottom plates (Corning, 3570BC) at 2500 cells per well using Multiflo (BioTek/Agilent) and in 25 μl volume in DMEM experimental medium: DMEM (DMEM, high glucose, HEPES, no phenol red (ThermoFisher Scientific, 21063029) supplemented with 10% FBS (Corning, 35-075-CV), 1% Penicillin/Streptomycin ((ThermoFisher Scientific, 15140-122), and 1% Endurazine (Nano-Glo Endurazine Live Cell Substrate (Promega, N2571)). Cells were incubated for 16 hours at 37° C., 5% CO2 before compound addition. For dose response determination, 2.5 nL of a compound at different concentrations (stock compound concentration range: 10 mM to 0.5 μM, final concentration range inside cell plate: 1 μM to 0.05 nM) were dispensed into the plate using an Echo® 650 liquid handling device (Backman Coulter/Labcyte). Cells were incubated at 37° C., 5% CO2 for 24 hours and then signal was read on a Pherastar FSX using “LUM plus” optic module with 4095 gain and measurement interval time 0.2 seconds.
Analysis was performed in Genedata Screener (Genedata, Basel, CH). Luminescence response (R) was calculated by the formula: response=100*(S−N)/(P−N) where S is the signal of the well, N and P the mean negative and positive control values respectively of the same plate. The luminescence response was then fitted in Genedata using a 4-parameter antagonist logistic fit (hill slope unconstrained, EC50>0, top/bottom unconstrained).

[1] = NEK7 degradation, read-out: NanoBiT Dmax
[2] = NEK7 degradation, read-out: NanoBiT DC50

CRBN-DDB1, sequence (Q96SW2 whole entry): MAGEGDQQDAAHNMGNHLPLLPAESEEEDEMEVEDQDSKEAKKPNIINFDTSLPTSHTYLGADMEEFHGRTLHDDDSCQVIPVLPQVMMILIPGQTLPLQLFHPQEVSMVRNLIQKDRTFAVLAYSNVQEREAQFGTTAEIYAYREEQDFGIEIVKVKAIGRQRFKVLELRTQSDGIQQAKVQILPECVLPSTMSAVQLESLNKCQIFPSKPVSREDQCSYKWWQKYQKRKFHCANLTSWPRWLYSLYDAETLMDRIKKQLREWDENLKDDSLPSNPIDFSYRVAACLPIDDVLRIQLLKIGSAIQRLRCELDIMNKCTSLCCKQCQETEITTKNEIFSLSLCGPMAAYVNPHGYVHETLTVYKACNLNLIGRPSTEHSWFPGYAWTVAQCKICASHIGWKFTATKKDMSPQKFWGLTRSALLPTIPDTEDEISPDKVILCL
CRBN-DDB1, sequence (Q16531 whole entry partner): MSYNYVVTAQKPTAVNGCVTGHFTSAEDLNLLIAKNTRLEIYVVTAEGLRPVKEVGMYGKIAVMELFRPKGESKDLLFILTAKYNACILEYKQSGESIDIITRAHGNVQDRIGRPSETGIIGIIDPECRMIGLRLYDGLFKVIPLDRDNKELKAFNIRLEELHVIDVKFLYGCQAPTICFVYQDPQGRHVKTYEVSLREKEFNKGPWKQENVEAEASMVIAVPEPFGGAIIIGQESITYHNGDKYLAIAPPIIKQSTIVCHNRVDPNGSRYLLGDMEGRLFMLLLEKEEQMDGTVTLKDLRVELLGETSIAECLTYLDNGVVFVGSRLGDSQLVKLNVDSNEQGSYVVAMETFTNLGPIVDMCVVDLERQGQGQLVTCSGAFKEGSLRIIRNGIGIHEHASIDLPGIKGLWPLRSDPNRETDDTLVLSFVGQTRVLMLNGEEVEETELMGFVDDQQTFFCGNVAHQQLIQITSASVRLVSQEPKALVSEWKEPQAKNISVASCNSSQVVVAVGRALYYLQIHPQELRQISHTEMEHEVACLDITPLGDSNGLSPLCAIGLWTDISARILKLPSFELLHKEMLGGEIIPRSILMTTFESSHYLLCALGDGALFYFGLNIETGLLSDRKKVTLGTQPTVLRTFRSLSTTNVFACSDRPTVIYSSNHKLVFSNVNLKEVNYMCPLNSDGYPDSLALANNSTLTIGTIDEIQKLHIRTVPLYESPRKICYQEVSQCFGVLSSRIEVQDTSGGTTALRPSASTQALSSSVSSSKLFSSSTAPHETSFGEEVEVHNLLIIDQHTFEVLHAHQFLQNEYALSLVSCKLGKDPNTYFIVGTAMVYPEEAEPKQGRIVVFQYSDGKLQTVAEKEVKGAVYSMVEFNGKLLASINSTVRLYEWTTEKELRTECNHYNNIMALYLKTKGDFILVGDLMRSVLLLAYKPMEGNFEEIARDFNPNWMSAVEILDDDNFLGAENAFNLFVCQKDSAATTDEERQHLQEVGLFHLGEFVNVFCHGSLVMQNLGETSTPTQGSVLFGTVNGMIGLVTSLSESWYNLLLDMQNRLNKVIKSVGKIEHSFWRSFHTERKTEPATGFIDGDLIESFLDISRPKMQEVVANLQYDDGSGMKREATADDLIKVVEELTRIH
NEK7, sequence (Q8TDX7 whole entry): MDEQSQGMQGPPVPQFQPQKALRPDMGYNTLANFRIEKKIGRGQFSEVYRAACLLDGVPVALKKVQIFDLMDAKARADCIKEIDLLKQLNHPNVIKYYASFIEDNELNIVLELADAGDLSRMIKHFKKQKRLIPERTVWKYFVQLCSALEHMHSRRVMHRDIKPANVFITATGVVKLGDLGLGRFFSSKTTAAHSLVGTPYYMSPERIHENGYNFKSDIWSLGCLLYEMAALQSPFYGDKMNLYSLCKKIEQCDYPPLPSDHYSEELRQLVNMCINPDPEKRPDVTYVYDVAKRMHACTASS
NEK7, sequence (Q96SW2 whole entry): as the sequence (Q96SW2 whole entry) above
NEK7, sequence (Q16531 2-1140 partner): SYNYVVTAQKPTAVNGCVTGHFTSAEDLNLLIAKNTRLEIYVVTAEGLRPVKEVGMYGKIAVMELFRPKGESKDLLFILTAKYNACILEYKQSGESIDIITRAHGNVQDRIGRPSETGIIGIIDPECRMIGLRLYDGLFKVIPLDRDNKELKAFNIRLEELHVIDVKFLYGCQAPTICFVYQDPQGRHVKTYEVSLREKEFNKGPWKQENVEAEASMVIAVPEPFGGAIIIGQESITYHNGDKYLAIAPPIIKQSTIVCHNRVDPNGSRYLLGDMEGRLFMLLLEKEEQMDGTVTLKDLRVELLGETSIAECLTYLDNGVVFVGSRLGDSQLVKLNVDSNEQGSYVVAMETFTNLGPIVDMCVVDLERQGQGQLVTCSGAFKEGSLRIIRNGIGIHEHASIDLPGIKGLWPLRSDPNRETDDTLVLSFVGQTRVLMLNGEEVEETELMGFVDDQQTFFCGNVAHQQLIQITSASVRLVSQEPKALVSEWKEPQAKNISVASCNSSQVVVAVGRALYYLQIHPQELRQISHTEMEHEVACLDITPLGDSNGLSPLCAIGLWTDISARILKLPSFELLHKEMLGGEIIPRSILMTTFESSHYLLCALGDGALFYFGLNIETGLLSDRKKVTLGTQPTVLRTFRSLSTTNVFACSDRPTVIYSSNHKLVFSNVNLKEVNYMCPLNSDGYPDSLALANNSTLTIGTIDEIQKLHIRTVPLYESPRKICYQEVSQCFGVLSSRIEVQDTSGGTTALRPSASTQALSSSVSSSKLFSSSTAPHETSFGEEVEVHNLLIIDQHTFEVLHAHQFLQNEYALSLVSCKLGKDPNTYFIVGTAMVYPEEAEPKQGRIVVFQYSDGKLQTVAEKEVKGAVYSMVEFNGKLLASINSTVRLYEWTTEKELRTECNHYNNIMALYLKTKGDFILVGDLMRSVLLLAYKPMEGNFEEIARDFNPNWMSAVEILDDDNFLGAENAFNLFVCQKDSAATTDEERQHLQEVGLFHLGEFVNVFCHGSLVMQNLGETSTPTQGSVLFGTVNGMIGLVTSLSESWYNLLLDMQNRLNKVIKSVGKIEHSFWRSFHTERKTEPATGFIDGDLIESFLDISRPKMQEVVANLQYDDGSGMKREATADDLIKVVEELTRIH

O=C1CCC(c2c(Cl)cc(CNC(=O)C3(c4ccnc(F)c4)CC(F)(F)C3)cc2Cl)C(=O)N1 (stereo not drawn) [Compound 136, N-(3,5-dichloro-4-(2,6-dioxopiperidin-3-yl)benzyl)-3,3-difluoro-1-(2-fluoropyridin-4-yl)cyclobutane-1-carboxamide]
EC50 (CRBN-DDB1): 60 nM
EC50 (CRBN-DDB1; HTRF class, Cereblon binding): ≤ 100 nM
Dmax (NEK7; read-out: NEK7 NanoBiT Dmax): 65%
Dmax (NEK7; [1]): 50 to 75%
DC50 (NEK7; read-out: NEK7 NanoBiT DC50): 63 nM
DC50 (NEK7; [2]): ≤ 100 nM

CC(C)(C(=O)NCc1cc(Cl)c(C2CCC(=O)NC2=O)c(Cl)c1)c1cc(C(F)F)ncn1 (stereo not drawn) [Compound 159]
EC50 (CRBN-DDB1): 280 nM
EC50 (CRBN-DDB1; HTRF class, Cereblon binding): 100 to 1000 nM
Dmax (NEK7; read-out: NEK7 NanoBiT Dmax): 79%
Dmax (NEK7; [1]): > 75%
DC50 (NEK7; read-out: NEK7 NanoBiT DC50): 28 nM
DC50 (NEK7; [2]): ≤ 100 nM

COCc1cnc(C(C)(C)C(=O)NCc2cc(Cl)c(C3CCC(=O)NC3=O)c(Cl)c2)cn1 (stereo not drawn) [Compound 222, N-(3,5-dichloro-4-(2,6-dioxopiperidin-3-yl)benzyl)-2-(5-(methoxymethyl)pyrazin-2-yl)-2-methylpropanamide]
EC50 (CRBN-DDB1): 160 nM
EC50 (CRBN-DDB1; HTRF class, Cereblon binding): 100 to 1000 nM
Dmax (NEK7; read-out: NEK7 NanoBiT Dmax): 73%
Dmax (NEK7; [1]): 50 to 75%
DC50 (NEK7; read-out: NEK7 NanoBiT DC50): 54 nM
DC50 (NEK7; [2]): ≤ 100 nM

CC(C)(C(=O)NCc1cc(Cl)c(C2CCC(=O)NC2=O)c(Cl)c1)c1ccc(S(N)(=O)=O)cc1F (stereo not drawn) [Compound 43]
EC50 (CRBN-DDB1): 40 nM
EC50 (CRBN-DDB1; HTRF class, Cereblon binding): ≤ 100 nM
Dmax (NEK7; read-out: NEK7 NanoBiT Dmax): 97%
Dmax (NEK7; [1]): > 75%
DC50 (NEK7; read-out: NEK7 NanoBiT DC50): 1 nM
DC50 (NEK7; [2]): ≤ 100 nM

CC(C)(C(=O)NCc1cc(Cl)c([C@@]2(F)CCC(=O)NC2=O)c(Cl)c1)c1ccccc1 (single isomer, unassigned) [Compound 274]
EC50 (CRBN-DDB1): ≥ 10000 nM
EC50 (CRBN-DDB1; HTRF class, Cereblon binding): > 1000 nM
Dmax (NEK7; read-out: NEK7 NanoBiT Dmax): 3%
Dmax (NEK7; [1]): ≤ 50%
DC50 (NEK7; read-out: NEK7 NanoBiT DC50): 1000 nM
DC50 (NEK7; [2]): > 1000 nM

Cc1conc1C(C)(C)C(=O)NCc1cc(F)c(C2CCC(=O)NC2=O)c(Cl)c1 (stereo not drawn) [Compound 279]
EC50 (CRBN-DDB1): 350 nM
EC50 (CRBN-DDB1; HTRF class, Cereblon binding): 100 to 1000 nM
Dmax (NEK7; read-out: NEK7 NanoBiT Dmax): 54%
Dmax (NEK7; [1]): 50 to 75%
DC50 (NEK7; read-out: NEK7 NanoBiT DC50): 672 nM
DC50 (NEK7; [2]): 100 to 1000 nM

CC(C)(C(=O)NCc1cc(Cl)c(C2CCC(=O)NC2=O)c(Cl)c1)c1ccn2cnnc2c1 (stereo not drawn) [Compound 44]
EC50 (CRBN-DDB1): 230 nM
EC50 (CRBN-DDB1; HTRF class, Cereblon binding): 100 to 1000 nM
Dmax (NEK7; read-out: NEK7 NanoBiT Dmax): 88%
Dmax (NEK7; [1]): > 75%
DC50 (NEK7; read-out: NEK7 NanoBiT DC50): 38 nM
DC50 (NEK7; [2]): ≤ 100 nM

Cc1ccc(C(C)(C)C(=O)NCc2cc(F)c(C3CCC(=O)NC3=O)c(Cl)c2)nn1 (stereo not drawn) [Compound 275]
EC50 (CRBN-DDB1): 210 nM
EC50 (CRBN-DDB1; HTRF class, Cereblon binding): 100 to 1000 nM
Dmax (NEK7; read-out: NEK7 NanoBiT Dmax): 61%
Dmax (NEK7; [1]): 50 to 75%
DC50 (NEK7; read-out: NEK7 NanoBiT DC50): 190 nM
DC50 (NEK7; [2]): 100 to 1000 nM

CC(C)(C(=O)NCc1cc(Cl)c(C2CCC(=O)NC2=O)c(Cl)c1)c1nocc1C(F)(F)F (stereo not drawn) [Compound 220]
EC50 (CRBN-DDB1): 150 nM
EC50 (CRBN-DDB1; HTRF class, Cereblon binding): 100 to 1000 nM
Dmax (NEK7; read-out: NEK7 NanoBiT Dmax): 91%
Dmax (NEK7; [1]): > 75%
DC50 (NEK7; read-out: NEK7 NanoBiT DC50): 8 nM
DC50 (NEK7; [2]): ≤ 100 nM

Cn1ccc2cc(C(C)(C)C(=O)NCc3cc(Cl)c(C4CCC(=O)NC4=O)c(Cl)c3)ccc21 (stereo not drawn) [Compound 90]
EC50 (CRBN-DDB1): 50 nM
EC50 (CRBN-DDB1; HTRF class, Cereblon binding): ≤ 100 nM
Dmax (NEK7; read-out: NEK7 NanoBiT Dmax): 94%
Dmax (NEK7; [1]): > 75%
DC50 (NEK7; read-out: NEK7 NanoBiT DC50): 4 nM
DC50 (NEK7; [2]): ≤ 100 nM

O=C1CC(C(=O)NCc2cc(Cl)c(C3CCC(=O)NC3=O)c(Cl)c2)(c2ccc(F)cc2)C1 (stereo not drawn) [Compound 137, N-(3,5-dichloro-4-(2,6-dioxopiperidin-3-yl)benzyl)-1-(4-fluorophenyl)-3-oxocyclobutane-1-carboxamide]
EC50 (CRBN-DDB1): 50 nM
EC50 (CRBN-DDB1; HTRF class, Cereblon binding): ≤ 100 nM
Dmax (NEK7; read-out: NEK7 NanoBiT Dmax): 97%
Dmax (NEK7; [1]): > 75%
DC50 (NEK7; read-out: NEK7 NanoBiT DC50): 1 nM
DC50 (NEK7; [2]): ≤ 100 nM

Source: patent US20250243180A1, “TARGETED PROTEIN DEGRADATION” (Monte Rosa Therapeutics AG, priority 2023, published 2025)
